In one test the test system is rat model of epilepsy. The settings on record: intraperitoneal injection, cited from earlier work.
A further test has as its system convulsive seizures. Put plainly: Acute intranasal treatment of convulsive seizures in pediatric human subjects. The class given is in vivo. Particulars: human subjects weighing over 60 lbs. The protocol: Three male human pediatric subjects, each under the age of 16, undergoing convulsive seizures, were administered from two to four 0.1 ml doses (each dose 5 mg delta-9-tetrahydrocannabinol with 8% by volume linalool) of the product disclosed herein. Administration was achieved via a nasal spray administered within one or more of the subject's nostrils using the delivery device disclosed herein by a caregiver during the occurrence of the convulsive seizure. In subject one, administered 3 doses, a visible state of cessation of the convulsions of the seizure was achieved by 21 seconds from first dose administration. In subject two, administered 4 doses, a visible state of cessation of the convulsions of the seizure was achieved by 36 seconds from first dose administration. In subject three, administered 2 doses, a visible state of cessation of the convulsions of the seizure was achieved by 27 seconds from first dose administration.
Thus, acute treatment of the convulsive seizure using an average dose of 3×0.1 ml of the 5 mg delta-9-tetrahydrocannabinol with 8% by volume linalool achieved cessation of the convulsion symptom of the convulsive seizure within a mean time of 28 seconds from first dose administration.

`CCCCCc1cc(O)c2c(c1)OC(C)(C)[C@@H]1CCC(C)=C[C@@H]21` [THC, delta-9-tetrahydrocannabinol]: in the test on rat model of epilepsy (30.0 mg/kg), the seizure prevention entry is listed as “can prevent seizures from occurring”. Further, in the test on rat model of epilepsy, the “ED50 anticonvulsant effect (seizure prevention)” value is recorded as 15.0 mg/kg and the “dose at which anticonvulsant effect starts” value was 5.0 mg/kg. Besides, in the test with convulsive seizures, the “lowest administered THC dose per body weight at which seizures in progress were stopped” value was “around 0.37 mg/kg”; the “lowest total administered THC dose at which seizures in progress were treated and stopped” value came to 10.0 mg.

(Values after patent publication US10206901B2, “Method and composition for acute treatment of seizures” (JC Pharma, Inc., priority 2016, dated 2019).)
